{
  "source": "PubChem BioAssay (NCI)",
  "experiment_in_all_cases": "NCI-60 cell line screen, 48 h",
  "key": {"[1]": {"test_system": "NCI-H522 lung"}, "[2]": {"test_system": "HOP-92 NSCLC"}, "[3]": {"test_system": "NCI-H460 lung"}, "[4]": {"test_system": "MOLT-4 leukemia"}, "[5]": {"test_system": "HOP-62 NSCLC"}, "[6]": {"test_system": "A549 NSCLC"}, "[7]": {"test_system": "K-562 leukemia"}, "[8]": {"test_system": "SF-268 CNS"}, "[9]": {"test_system": "EKVX NSCLC"}, "[10]": {"test_system": "U251 CNS"}, "[11]": {"test_system": "UACC-257 melanoma"}, "[12]": {"test_system": "SF-295 CNS"}},
  "note": "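Interpolation was linear, between the two tested concentrations surrounding the appropriate level; five concentrations were tested over 48 hours in 96-well plates. TGI denotes the concentration required for complete inhibition of growth.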",
  "data": [
    {"smiles": "CCOC(=O)CN1C(=O)c2ccc(NC(=O)C(=O)O)cc2S1(=O)=O", "values": [
      {"measurement": "TGI", "setting": "[1]", "value": "> 100", "unit": "µM"},
      {"measurement": "TGI", "setting": "[2]", "value": "> 100", "unit": "µM"},
      {"measurement": "TGI", "setting": "[3]", "value": "> 100", "unit": "µM"},
      {"measurement": "TGI", "setting": "[4]", "value": "> 100", "unit": "µM"},
      {"measurement": "TGI", "setting": "[5]", "value": "> 100", "unit": "µM"},
      {"measurement": "TGI", "setting": "[6]", "value": "> 100", "unit": "µM"},
      {"measurement": "TGI", "setting": "[7]", "value": "> 100", "unit": "µM"},
      {"measurement": "TGI", "setting": "[8]", "value": "> 100", "unit": "µM"},
      {"measurement": "TGI", "setting": "[9]", "value": "> 100", "unit": "µM"},
      {"measurement": "TGI", "setting": "[10]", "value": "> 100", "unit": "µM"},
      {"measurement": "TGI", "setting": "[11]", "value": "> 100", "unit": "µM"},
      {"measurement": "TGI", "setting": "[12]", "value": "> 100", "unit": "µM"}
    ]},
    {"smiles": "S=c1sc2c(Cl)nc(Cl)nc2n1-c1ccccc1", "values": [
      {"measurement": "TGI", "setting": "[1]", "value": 23.8, "unit": "µM"},
      {"measurement": "TGI", "setting": "[2]", "value": "> 100", "unit": "µM"},
      {"measurement": "TGI", "setting": "[3]", "value": "> 100", "unit": "µM"},
      {"measurement": "TGI", "setting": "[4]", "value": "> 100", "unit": "µM"},
      {"measurement": "TGI", "setting": "[5]", "value": "> 100", "unit": "µM"},
      {"measurement": "TGI", "setting": "[6]", "value": "> 100", "unit": "µM"},
      {"measurement": "TGI", "setting": "[7]", "value": "> 100", "unit": "µM"},
      {"measurement": "TGI", "setting": "[8]", "value": 23.2, "unit": "µM"},
      {"measurement": "TGI", "setting": "[9]", "value": "> 100", "unit": "µM"},
      {"measurement": "TGI", "setting": "[10]", "value": 98, "unit": "µM"},
      {"measurement": "TGI", "setting": "[11]", "value": "> 100", "unit": "µM"},
      {"measurement": "TGI", "setting": "[12]", "value": "> 100", "unit": "µM"}
    ]},
    {"smiles": "CN(C)CCC(=O)c1ccccc1", "values": [
      {"measurement": "TGI", "setting": "[1]", "value": 1.06, "unit": "µM"},
      {"measurement": "TGI", "setting": "[2]", "value": 44.6, "unit": "µM"},
      {"measurement": "TGI", "setting": "[3]", "value": "> 73.5", "unit": "µM"},
      {"measurement": "TGI", "setting": "[4]", "value": 59.9, "unit": "µM"},
      {"measurement": "TGI", "setting": "[5]", "value": "> 100", "unit": "µM"},
      {"measurement": "TGI", "setting": "[6]", "value": "> 82.1", "unit": "µM"},
      {"measurement": "TGI", "setting": "[7]", "value": 85.4, "unit": "µM"},
      {"measurement": "TGI", "setting": "[8]", "value": "> 74.7", "unit": "µM"},
      {"measurement": "TGI", "setting": "[9]", "value": "> 68.8", "unit": "µM"},
      {"measurement": "TGI", "setting": "[10]", "value": "> 69.4", "unit": "µM"},
      {"measurement": "TGI", "setting": "[11]", "value": "> 59", "unit": "µM"},
      {"measurement": "TGI", "setting": "[12]", "value": "> 100", "unit": "µM"}
    ]}
  ]
}
